From ChEMBL document CHEMBL1201862, “PubChem BioAssay data set” (2004)
The source made the active and inactive calls.

Columns and labels:
[1] = target: T1, Polyadenylate-binding protein 1 (Homo sapiens, UniProt P11940); experiment: MLLE domain peptide-binding blockers, IC50 – biochemical, fluorescence polarization, FITC-PAM2 peptide, dose response (AID 602259); format: functional; conditions: read-out: IC50_Mean
[2] = target: T1, Polyadenylate-binding protein 1; experiment: MLLE binding blockers, Cy5 peptide tracer – biochemical, fluorescence polarization, Cy5-PAM2 peptide, secondary, miRNA deadenylation inhibitor project, dose response (AID 602260); format: functional; conditions: read-out: IC50_Mean
[3] = target: T2, High affinity choline transporter 1 (Homo sapiens, UniProt Q9GZV3); experiment: human choline transporter blockers, potency – cell-based, 5-point CRC, membrane potential dye, dose response (AID 504840); format: functional
T2 sequence (Q9GZV3 whole entry): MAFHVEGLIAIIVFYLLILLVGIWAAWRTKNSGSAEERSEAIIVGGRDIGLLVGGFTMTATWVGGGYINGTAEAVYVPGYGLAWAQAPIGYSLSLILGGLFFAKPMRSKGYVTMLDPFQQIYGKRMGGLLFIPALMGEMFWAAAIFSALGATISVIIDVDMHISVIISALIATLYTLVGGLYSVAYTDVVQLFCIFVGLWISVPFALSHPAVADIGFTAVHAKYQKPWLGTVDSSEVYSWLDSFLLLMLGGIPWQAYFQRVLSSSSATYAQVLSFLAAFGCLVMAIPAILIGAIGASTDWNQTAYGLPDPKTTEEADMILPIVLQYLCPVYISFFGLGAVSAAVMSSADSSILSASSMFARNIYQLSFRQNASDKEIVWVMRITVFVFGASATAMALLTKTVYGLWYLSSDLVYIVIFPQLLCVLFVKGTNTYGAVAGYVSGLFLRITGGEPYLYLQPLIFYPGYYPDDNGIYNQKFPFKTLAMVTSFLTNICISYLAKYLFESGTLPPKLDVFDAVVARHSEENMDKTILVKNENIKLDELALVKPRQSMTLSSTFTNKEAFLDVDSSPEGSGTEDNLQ

[4] = target: T3, Zinc finger protein mex-5 (Caenorhabditis elegans, UniProt Q9XUB2); experiment: potency of MEX-5 RNA-binding blockers – biochemical, C. elegans, fluorescence polarization, dose response (AID 1960)
T3 sequence (Q9XUB2 whole entry): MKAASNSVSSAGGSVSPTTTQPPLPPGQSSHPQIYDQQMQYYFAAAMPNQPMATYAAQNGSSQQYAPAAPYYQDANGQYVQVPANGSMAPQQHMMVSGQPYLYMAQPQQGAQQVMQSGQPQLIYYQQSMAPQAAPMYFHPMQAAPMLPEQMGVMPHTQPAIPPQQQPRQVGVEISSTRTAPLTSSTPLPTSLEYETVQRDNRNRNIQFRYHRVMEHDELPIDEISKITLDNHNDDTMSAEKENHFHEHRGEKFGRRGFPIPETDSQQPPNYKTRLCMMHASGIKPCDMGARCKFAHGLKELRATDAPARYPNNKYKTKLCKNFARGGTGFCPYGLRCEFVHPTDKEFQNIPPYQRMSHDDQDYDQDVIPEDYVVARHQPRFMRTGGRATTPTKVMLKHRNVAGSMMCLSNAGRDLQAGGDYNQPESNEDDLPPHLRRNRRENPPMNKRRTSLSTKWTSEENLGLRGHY

[5] = target: T4, RNA-binding protein pos-1 (Caenorhabditis elegans, UniProt G5EF15); experiment: disruptors of C. elegans POS-1 RNA interaction – biochemical, fluorescence polarization, dose response (AID 1964);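 note: purified POS-1 fused to maltose binding protein made in E. coli; potency of compounds blocking POS-1 binding to fluorescent RNA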
T4 sequence (G5EF15 whole entry): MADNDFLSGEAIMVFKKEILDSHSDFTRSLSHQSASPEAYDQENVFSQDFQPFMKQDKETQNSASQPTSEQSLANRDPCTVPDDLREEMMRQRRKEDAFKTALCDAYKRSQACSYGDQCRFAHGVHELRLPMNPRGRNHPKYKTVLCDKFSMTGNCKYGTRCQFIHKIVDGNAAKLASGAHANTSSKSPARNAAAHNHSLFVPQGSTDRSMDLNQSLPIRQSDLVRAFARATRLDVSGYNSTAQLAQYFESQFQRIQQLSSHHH

[6] = target: T5, Heat shock factor protein 1 (Mus musculus, UniProt P38532); experiment: decrease of HSF1-responsive luciferase luminescence – cell-based, NIH3T3, dose retest, confirmation (AID 2382); format: functional;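 note: NIH3T3 fibroblasts with HSF1-driven luciferase reporter stressed by proteasome inhibitor MG132; luminescence from HSF1-driven luciferase expression after 8 hours of MG132 stress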
T5 sequence (P38532 whole entry): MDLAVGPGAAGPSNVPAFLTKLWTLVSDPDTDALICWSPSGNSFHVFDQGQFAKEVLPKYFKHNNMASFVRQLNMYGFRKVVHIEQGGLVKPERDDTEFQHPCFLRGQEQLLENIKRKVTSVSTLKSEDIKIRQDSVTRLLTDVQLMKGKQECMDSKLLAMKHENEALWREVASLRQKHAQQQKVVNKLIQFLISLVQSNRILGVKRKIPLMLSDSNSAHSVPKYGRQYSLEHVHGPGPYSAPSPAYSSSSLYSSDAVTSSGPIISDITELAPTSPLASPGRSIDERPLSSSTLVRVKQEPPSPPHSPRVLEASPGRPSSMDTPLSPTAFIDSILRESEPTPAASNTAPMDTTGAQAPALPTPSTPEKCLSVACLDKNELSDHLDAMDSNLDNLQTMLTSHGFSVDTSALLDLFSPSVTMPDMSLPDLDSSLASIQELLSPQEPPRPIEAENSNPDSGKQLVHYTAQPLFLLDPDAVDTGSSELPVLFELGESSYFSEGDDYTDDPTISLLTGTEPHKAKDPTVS

[7] = target: T5, Heat shock factor protein 1; experiment: enhancement of HSF1-driven luciferase signal – cell-based, NIH3T3, luminescence, dose retest, confirmation (AID 435004); format: functional;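 note: stress induced by proteasome inhibitor MG132 added 30 min after compound; luciferase reporter driven by HSF1 response element in NIH3T3 cells; actives raise luminescence as potentiators of the MG132 stress response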
[8] = viability of HCT116 lacking mutant beta-catenin – cell-based, human colon tumor, dose response (AID 1045); format: functional;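 note: HCT116 colon tumor cells with beta catenin knocked out; cells exposed to compound for 60 hours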
Vero = experiment: cells; format: functional; conditions: Chlorocebus sabaeus
[9] = viability of PTEN-deleted HCT116 cells – cell-based, HCT116 PTEN knockout, dose response (AID 1047); format: functional;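 note: HCT116 colon tumor cells with PTEN knocked out; cells exposed to compound for 60 hours before readout; potency for loss of cell viability measured by luminescence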
[10] = target: Induced myeloid leukemia cell differentiation protein Mcl-1 (Homo sapiens, UniProt Q07820); format: functional
Chain of Induced myeloid leukemia cell differentiation protein Mcl-1 (Q07820 whole entry): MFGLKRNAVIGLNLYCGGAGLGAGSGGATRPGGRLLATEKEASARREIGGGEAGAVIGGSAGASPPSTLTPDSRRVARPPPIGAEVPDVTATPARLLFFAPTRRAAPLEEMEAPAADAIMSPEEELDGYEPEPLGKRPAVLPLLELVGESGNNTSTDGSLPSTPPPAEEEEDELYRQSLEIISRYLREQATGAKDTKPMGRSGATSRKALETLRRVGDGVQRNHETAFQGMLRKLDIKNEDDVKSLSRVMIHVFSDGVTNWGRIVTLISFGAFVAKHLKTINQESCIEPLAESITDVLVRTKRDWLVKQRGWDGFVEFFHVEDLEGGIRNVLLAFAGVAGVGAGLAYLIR

[11] = target: Luciferin 4-monooxygenase (Photinus pyralis, UniProt P08659); experiment: inhibition of purified Photinus pyralis luciferase – biochemical, luminescence, dose response (AID 1891)
Chain of Luciferin 4-monooxygenase (P08659 whole entry): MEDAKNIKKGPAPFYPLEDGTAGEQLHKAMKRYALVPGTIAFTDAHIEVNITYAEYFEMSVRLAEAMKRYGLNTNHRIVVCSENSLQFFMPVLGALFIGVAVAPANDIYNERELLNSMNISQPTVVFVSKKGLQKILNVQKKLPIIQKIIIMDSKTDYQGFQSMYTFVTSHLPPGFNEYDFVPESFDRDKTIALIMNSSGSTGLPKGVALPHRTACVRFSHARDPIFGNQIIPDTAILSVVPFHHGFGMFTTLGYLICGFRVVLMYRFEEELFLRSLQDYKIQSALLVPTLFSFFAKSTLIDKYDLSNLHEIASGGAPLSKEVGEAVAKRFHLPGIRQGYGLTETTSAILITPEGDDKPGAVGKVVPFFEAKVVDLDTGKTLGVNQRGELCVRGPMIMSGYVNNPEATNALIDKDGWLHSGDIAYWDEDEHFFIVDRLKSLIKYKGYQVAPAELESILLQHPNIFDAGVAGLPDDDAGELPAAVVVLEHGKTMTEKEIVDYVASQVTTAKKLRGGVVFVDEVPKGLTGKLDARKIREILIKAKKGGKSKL

[12] = Luminescence Cell-Based Dose Confirmation HTS to Identify Inhibitors of Platelet Dense Granule Release. [Related pubchem assays: 1663 (Primary HTS), 1678 (Summary of Project)]; format: functional
cells [13] = format: functional
[14] = THP-1 cell cytotoxicity, dose response, cytotoxicity control for non-replicating M. tuberculosis project (AID 489025); format: functional
cells [15] = format: functional, cell-based
cells [16] = format: functional, cell-based; remark: listed apart in the source
Streptococcus = experiment: GAS UMAA2166 growth inhibition – luminescence, BacTiterGlo, counter-screen for streptokinase expression inhibitor project, dose response (AID 1915); format: functional, organism-based;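 note: potency for reduction of bacterial viability or growth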
[17] = tested on: Streptococcus sp. 'group A'; experiment: Streptococcus pyogenes SK(-)GAS viability under kanamycin – luminescence, BacTiterGlo, confirmation, counter-screen for streptokinase expression inhibitor project, dose response (AID 1900); format: functional, organism-based
[18] = target: T6, Carboxy-terminal domain RNA polymerase II polypeptide A small phosphatase 1 (Homo sapiens, UniProt Q9GZU7); experiment: CTDSP1 inhibitors, concentration-response, biochemical, absorbance readout, ultra-high-throughput screen actives (AID 540297); format: functional
T6 sequence (Q9GZU7 whole entry): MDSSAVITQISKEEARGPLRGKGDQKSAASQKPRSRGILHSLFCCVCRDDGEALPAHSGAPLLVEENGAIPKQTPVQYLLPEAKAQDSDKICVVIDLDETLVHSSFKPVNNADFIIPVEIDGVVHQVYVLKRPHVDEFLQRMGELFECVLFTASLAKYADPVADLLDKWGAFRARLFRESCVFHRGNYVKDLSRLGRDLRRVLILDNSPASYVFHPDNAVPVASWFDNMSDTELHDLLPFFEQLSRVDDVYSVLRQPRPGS

[19] = Trypanosoma cruzi growth suppression in host cells – NIH3T3 host cells, beta-gal luminescence, confirmation (AID 2044); format: functional, cell-based;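 note: intracellular parasites grown in NIH/3T3 mouse fibroblasts as host cells; luminescent beta-galactosidase reporter signal from transgenic T. cruzi replicating inside host cells; inhibitors lower the luminescence signal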
[20] = target: T7, DNA repair protein RAD52 homolog (Homo sapiens, UniProt P43351); format: functional, biochemical
T7 sequence (P43351 whole entry): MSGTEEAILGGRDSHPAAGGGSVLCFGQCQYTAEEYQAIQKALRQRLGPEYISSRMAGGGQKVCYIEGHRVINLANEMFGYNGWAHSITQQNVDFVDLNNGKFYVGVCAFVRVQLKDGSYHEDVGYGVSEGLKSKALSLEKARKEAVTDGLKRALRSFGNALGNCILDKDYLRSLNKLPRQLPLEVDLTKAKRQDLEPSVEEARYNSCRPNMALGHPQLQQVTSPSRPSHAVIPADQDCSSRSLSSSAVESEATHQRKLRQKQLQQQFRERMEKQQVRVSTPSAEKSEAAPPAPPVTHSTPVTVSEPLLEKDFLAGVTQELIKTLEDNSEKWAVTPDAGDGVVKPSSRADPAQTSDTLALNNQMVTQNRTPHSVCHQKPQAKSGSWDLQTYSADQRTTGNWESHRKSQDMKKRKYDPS

[21] = NIH3T3 cell viability loss – ATP luminescence, mouse fibroblasts, counter-screen, dose response (AID 2010); format: functional, cell-based;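 note: cells exposed to compound for about 90 hours before reading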

T1 sequence (P11940 whole entry, the tested form may be a part): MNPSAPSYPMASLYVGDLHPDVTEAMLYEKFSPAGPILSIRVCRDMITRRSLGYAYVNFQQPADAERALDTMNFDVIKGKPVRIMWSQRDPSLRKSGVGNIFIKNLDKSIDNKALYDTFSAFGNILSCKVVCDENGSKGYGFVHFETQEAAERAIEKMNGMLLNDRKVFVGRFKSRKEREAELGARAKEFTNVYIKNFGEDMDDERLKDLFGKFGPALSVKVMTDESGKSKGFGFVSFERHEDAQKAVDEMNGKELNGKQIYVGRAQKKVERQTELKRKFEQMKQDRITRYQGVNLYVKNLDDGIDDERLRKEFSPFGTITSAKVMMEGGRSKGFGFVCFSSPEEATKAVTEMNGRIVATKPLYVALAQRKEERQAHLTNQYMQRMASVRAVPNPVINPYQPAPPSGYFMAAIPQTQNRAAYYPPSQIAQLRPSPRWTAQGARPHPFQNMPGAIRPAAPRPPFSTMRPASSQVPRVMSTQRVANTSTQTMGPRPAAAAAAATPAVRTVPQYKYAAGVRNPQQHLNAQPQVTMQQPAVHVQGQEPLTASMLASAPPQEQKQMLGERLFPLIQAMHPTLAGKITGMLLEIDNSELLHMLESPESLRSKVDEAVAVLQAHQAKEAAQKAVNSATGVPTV

Cc1ccc(NC(S)=Nc2ccc3[nH]c(O)nc3c2)cc1C
IC50 [1]: > 66 µM (inactive)
IC50 [2]: > 66 µM (inactive)
IC50 [3]: 14.5 µM (active)

COc1cc(NC(=O)CSc2nnc3ccc(-c4ccncc4)nn23)cc(OC)c1
EC50 [4]: > 300 µM (not active)
EC50 [5]: > 300 µM (not active)

CC(C)c1nc(SCC(=O)c2ccc(F)cc2)c2ccccc2n1
IC50 [1]: > 66 µM (inactive)
IC50 [2]: > 66 µM (inactive)
EC50 [6]: > 195 µM (not active)

Cc1ccc(C(=O)Oc2oc(-c3ccccc3)nc2/C=N/c2ccc(N(C)C)cc2)cc1
EC50 [4]: > 300 µM (inconclusive)
EC50 [7]: 6.88 µM (active)
EC50 [5]: > 300 µM (not active)

Cc1cccc(OCC(O)Cn2c(=N)n(CCN3CCCCC3)c3ccccc32)c1 (centres undefined)
EC50 [8]: 6.6 µM (active)
CC50 (Vero): 15 µM (active)
EC50 [9]: 7.39 µM (active)

CN1CCN(S(=O)(=O)c2ccc(NC(=S)NC(=O)C(C)(C)C)cc2)CC1
IC50 [1]: > 66 µM (inactive)
IC50 [2]: > 66 µM (inactive)

Cc1ccc(S(=O)(=O)Nc2ccccc2F)cc1C(=O)NNC(=O)c1csc(N2CCOCC2)n1
EC50 [4]: 23.3 µM (active)
EC50 [5]: 30.8 µM (active)

Cc1cccc(/N=C/c2sc3ccccc3c2O)n1
IC50 [10]: 1.57 µM (active)
EC50 [11]: 1.02 µM (active)
EC50 [12]: 22.1 µM (active)

CCOC(=O)c1ccccc1NC(=O)c1cn(-c2ccc(OC)cc2)c(=O)c2ccccc12
CC50 (Vero): > 25 µM (active)

COc1ccc(C(=O)NC2(C(F)(F)F)C(=O)N(Cc3ccco3)C3=C2C(=O)CC(C)(C)C3)cc1OC (centres undefined)
EC50 [4]: > 300 µM (not active)
EC50 [5]: > 300 µM (not active)

CC(=O)c1ccccc1-c1csc2ncnc(Sc3nnnn3C)c12
CC50 (Vero): > 25 µM (active)

CSc1nc2c(=S)[nH]c(=S)[nH]c2s1
IC50 [1]: > 66 µM (inactive)
IC50 [2]: > 66 µM (inactive)

COc1ccc(C(=O)NCC(=O)N/N=C/c2ccc([N+](=O)[O-])o2)cc1OC
IC50 (cells [13]): 4.08 µM (active)
CC50 [14]: 24 µM (active)

CCOc1ccc(NC(=O)COc2ccccc2)c([N+](=O)[O-])c1
EC50 [4]: > 300 µM (not active)
EC50 (cells [15]): > 350 µM (not active)
EC50 (cells [16]): 11.9 µM (active)
EC50 [5]: > 300 µM (not active)

CCOC1(OCC)N=C(N)C2(C#N)C(c3ccc(NC(C)=O)cc3)C12C#N (centres undefined)
EC50 [4]: 79.4 µM (active)
EC50 [5]: 155 µM (active)

COc1ccc(C(=O)NNC(=S)NC(=O)c2ccc(F)cc2)cc1Br
CC50 (Vero): > 25 µM (active)
EC50 (Streptococcus): 1.73 µM (active)
EC50 [17]: 0.378 µM (active)

CN(C)c1ccc(NC(=O)CCCc2ccccc2)cc1
IC50 [10]: 4.98 µM (not active)

Cc1cc2cc(CNC(=O)COc3ccccc3)ccc2n1C
IC50 [1]: > 66 µM (inactive)
IC50 [2]: > 66 µM (inactive)

O=C(COc1ccc2ccccc2c1)NNC(=O)c1ccc([N+](=O)[O-])cc1
IC50 [10]: 7.07 µM (active)
IC50 [18]: 6.67 µM (active)

COc1cc2c(cc1OC)CN(c1nc(CN3CCCC3)nc3sc(C)c(C)c13)CC2
EC50 [19]: 0.278 µM (active)
AC50 [20]: 11.5 µM (active)
EC50 [21]: > 60 µM (not active)

Cc1c(N=C2Nc3cccc4cccc2c34)c(=O)n(-c2ccccc2)n1C
EC50 [4]: > 300 µM (not active)
EC50 [5]: > 300 µM (not active)

O=C(O)CCN1C(=O)/C(=C\c2ccc(-c3nc4ccccc4s3)o2)SC1=S
IC50 [10]: 1.53 µM (active)
